According to patent US20240368203A1, “DEGRADATION OF (EGFR) BY CONJUGATION OF EGFR INHIBITORS WITH E3 LIGASE LIGAND AND METHODS OF USE” (BeiGene, Ltd., priority 2022, published 2024):

Experiments:
[1] = tested on: EGFR-Del19/T790M/C797S; assay: EGFR degradation HTRF assay in H1975-clone #28 cells; format: cell-based; details: H1975-clone #28 (Del19/T790M/C797S) cells, 16 h treatment; for DC50: IC50 (DC50), read-out: DC50(nM) H1975 # 28 DTC; for Dmax (%) H1975 # 28 DTC: maximum percentage of inhibition (degradation)
Procedure, shortened: (§1)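 H1975 clones with endogenous EGFR knocked out, homozygously expressing lentiviral L858R/T790M/C797S (#25) or Del19/T790M/C797S (#28), treated 16 h at 37° C with 8 doses from 10 uM, 5-fold, in 0.2% DMSO. EGFR in lysates measured by HTRF overnight; DC50 from four-parameter fit of % degradation.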

[2] = target: T1, EGFR-L858R/T790M/C797S (Homo sapiens, UniProt P00533, C797S/L858R/T790M); assay: EGFR degradation HTRF assay in H1975-clone #25 cells; format: cell-based; details: 16 h treatment; for DC50: H1975-clone #25 (L858R/T790M/C797S) cells, IC50 (DC50), read-out: DC50(nM) H1975 # 25-LTC; for Dmax: NCI-H1975, H1975-clone #25 (L858R/T790M/C797S) cells, maximum percentage of inhibition (degradation), read-out: Dmax (%) H1975 # 25-LTC
T1 construct: expressed in transfected cells; host or cells: H1975-clone #25 (lentiviral over-expression, endogenous EGFR knocked out)
T1 sequence (P00533 25-1210 T790M/C797S/L858R): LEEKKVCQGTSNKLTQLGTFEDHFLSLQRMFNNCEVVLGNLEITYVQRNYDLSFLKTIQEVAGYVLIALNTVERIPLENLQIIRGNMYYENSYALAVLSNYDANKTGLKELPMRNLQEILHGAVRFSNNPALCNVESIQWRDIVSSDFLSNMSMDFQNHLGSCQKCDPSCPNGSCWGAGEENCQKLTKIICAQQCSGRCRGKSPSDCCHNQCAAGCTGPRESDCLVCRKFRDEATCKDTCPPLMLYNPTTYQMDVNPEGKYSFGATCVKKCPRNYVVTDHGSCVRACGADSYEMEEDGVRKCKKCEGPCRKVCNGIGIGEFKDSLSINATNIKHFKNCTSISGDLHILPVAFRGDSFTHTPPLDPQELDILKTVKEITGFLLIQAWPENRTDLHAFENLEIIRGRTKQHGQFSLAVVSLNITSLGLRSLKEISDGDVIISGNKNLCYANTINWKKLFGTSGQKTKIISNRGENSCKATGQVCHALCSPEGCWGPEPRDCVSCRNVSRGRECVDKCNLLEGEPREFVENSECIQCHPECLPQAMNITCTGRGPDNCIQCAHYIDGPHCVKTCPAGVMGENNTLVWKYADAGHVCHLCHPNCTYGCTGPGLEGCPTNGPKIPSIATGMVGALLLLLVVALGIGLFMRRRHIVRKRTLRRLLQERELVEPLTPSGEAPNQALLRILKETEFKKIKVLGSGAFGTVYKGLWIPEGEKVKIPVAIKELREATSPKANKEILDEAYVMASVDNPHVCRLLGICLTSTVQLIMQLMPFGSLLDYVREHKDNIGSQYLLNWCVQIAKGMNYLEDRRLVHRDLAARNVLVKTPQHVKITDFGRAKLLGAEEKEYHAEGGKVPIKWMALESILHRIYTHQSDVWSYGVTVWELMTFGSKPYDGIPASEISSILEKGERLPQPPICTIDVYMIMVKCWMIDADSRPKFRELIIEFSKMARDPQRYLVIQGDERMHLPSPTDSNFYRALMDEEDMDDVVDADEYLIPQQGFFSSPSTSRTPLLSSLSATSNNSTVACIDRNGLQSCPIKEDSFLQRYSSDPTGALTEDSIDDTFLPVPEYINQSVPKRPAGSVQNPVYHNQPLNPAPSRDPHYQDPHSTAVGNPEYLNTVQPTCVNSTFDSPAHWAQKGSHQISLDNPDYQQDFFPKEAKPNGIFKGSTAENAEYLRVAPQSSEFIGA
Procedure, shortened: as §1

DC50 [1] [nM] | DC50 [2] [nM] | Dmax [2] [%] | SMILES | Dmax (%) H1975 # 28 DTC [1] [%]
0.8 | 0.6 | 86 | CCc1ncc2c(P(C)(C)=O)c(Nc3nc(Nc4cc(CC)c(N5CCC(N6CC7(CCN(c8cccc9c8n(C)c(=O)n9C8CCC(=O)NC8=O)CC7)C6)CC5)cc4OC)ncc3Br)ccc2n1 (stereo not drawn) [Example 31, 3-(4-(2-(1-(4-((5-bromo-4-((5-(dimethylphosphoryl)-2-ethylquinazolin-6-yl)amino)pyrimidin-2-yl)amino)-2-ethyl-5-methoxyphenyl)piperidin-4-yl)-2,7-diazaspiro[3.5]nonan-7-yl)-3-methyl-2-oxo-2,3-dihydro-1H-benzol[d]imidazol-1-yl)piperidine-2,6-dione] | 80
5.6 | 2.4 | 92 | CCc1ncc2c(P(C)(C)=O)c(Nc3nc(Nc4cc(CC)c(N5CCC(N6CC(CN7CCC(c8cc(F)c([C@H]9CCC(=O)NC9=O)c(F)c8)CC7)C6)CC5)cc4OC)ncc3Br)ccc2n1 [Example 55, (R)-3-(4-(1-((1-(1-(4-((5-bromo-4-((5-(dimethylphosphoryl)-2-ethylquinazolin-6-yl)amino)pyrimidin-2-yl)amino)-2-ethyl-5-methoxyphenyl)piperidin-4-yl)azetidin-3-yl)methyl)piperidin-4-yl)-2,6-difluorophenyl)piperidine-2,6-dione] | 91
2.7 | 2.9 | 76 | CCc1ncc2c(P(C)(C)=O)c(Nc3nc(Nc4cc(CC)c(N5CCC(N6CCN(C7CN(c8cc(F)c([C@H]9CCC(=O)NC9=O)c(F)c8)C7)CC6)CC5)cc4OC)ncc3Br)ccc2n1 (single isomer, unassigned) [Example 7] | 86
1.2 | 1.3 | 83 | CCc1ncc2c(P(C)(C)=O)c(Nc3nc(Nc4cc(CC)c(N5CCC(N6CCN(CC7CCN(c8ccc9c(c8)CN(C8CCC(=O)NC8=O)C9=O)CC7)CC6)CC5)cc4OC)ncc3Br)ccc2n1 (stereo not drawn) [Example 35, 3-(5-(4-((4-(1-(4-((5-bromo-4-((5-(dimethylphosphoryl)-2-ethylquinazolin-6-yl)amino)pyrimidin-2-yl)amino)-2-ethyl-5-methoxyphenyl)piperidin-4-yl)piperazin-1-yl)methyl)piperidin-1-yl)-1-oxoisoindolin-2-yl)piperidine-2,6-dione] | 79

The remaining lines, values behind:

SMILES | DC50 [1] [nM] | DC50 [2] [nM] | Dmax [2] [%] | Dmax (%) H1975 # 28 DTC [1] [%]
CCc1cc(Nc2ncc(Br)c(Nc3ccc4nc(C)c(F)cc4c3P(C)(C)=O)n2)c(OC)cc1N1CCC2(CCN(CC3CN(c4cccc5c4CN(C4CCC(=O)NC4=O)C5=O)C3)CC2)CC1 (stereo not drawn) [Example 33, 3-(4-(3-((9-(4-((5-bromo-4-((5-(dimethylphosphoryl)-3-fluoro-2-methylquinolin-6-yl)amino)pyrimidin-2-yl)amino)-2-ethyl-5-methoxyphenyl)-3,9-diazaspiro[5.5]undecan-3-yl)methyl)azetidin-1-yl)-1-oxoisoindolin-2-yl)piperidine-2,6-dione] | 2.1 | 1.5 | 91 | 82
CCc1ccc2c(P(C)(C)=O)c(Nc3nc(Nc4cc(CC)c(N5CCC(N6CCC(N7CC(c8cccc9c8n(C)c(=O)n9C8CCC(=O)NC8=O)C7)CC6)CC5)cc4OC)ncc3Br)ccc2n1 (stereo not drawn) [Example 63, 3-(4-(1-(1′-(4-((5-bromo-4-((5-(dimethylphosphoryl)-2-ethylquinolin-6-yl)amino)pyrimidin-2-yl)amino)-2-ethyl-5-methoxyphenyl)-[1,4′-bipiperidin]-4-yl)azetidin-3-yl)-3-methyl-2-oxo-2,3-dihydro-1H-benzo[d]imidazol-1-yl)piperidine-2,6-dione] | 4.7 | 2.7 | 77 | 74
CCc1ccc2c(P(C)(C)=O)c(Nc3nc(Nc4cc(CC)c(N5CCC(N6CCC(N7CCN(c8cc(F)c([C@H]9CCC(=O)NC9=O)c(F)c8)CC7)CC6)CC5)cc4OC)ncc3Br)ccc2n1 (single isomer, unassigned) [Example 11] | 1.8 | 0.9 | 94 | 88
CCc1cc(Nc2ncc(Br)c(Nc3ccc4nc(C)c(F)cc4c3P(C)(C)=O)n2)c(OC)cc1N1CCC2(CCN(CCc3cc(F)c([C@H]4CCC(=O)NC4=O)c(F)c3)CC2)CC1 [Example 6, (R)-3-(4-(2-(9-(4-((5-bromo-4-((5-(dimethylphosphoryl)-3-fluoro-2-methylquinolin-6-yl)amino)pyrimidin-2-yl)amino)-2-ethyl-5-methoxyphenyl)-3,9-diazaspiro[5.5]undecan-3-yl)ethyl)-2,6-difluorophenyl)piperidine-2,6-dione] | 3.1 | 9 | 89 | 80
CCOc1cc(N2CCC(N3CCC4(CC3)CN(c3cc(F)c([C@H]5CCC(=O)NC5=O)c(F)c3)C4)CC2)c(CC)cc1Nc1ncc(Br)c(Nc2ccc3nc(CC)ncc3c2P(C)(C)=O)n1 (single isomer, unassigned) [Example 19] | 1.1 | 1.9 | 93 | 91
CCc1cc(Nc2ncc(Br)c(Nc3ccc4nc(C)c(F)cc4c3P(C)(C)=O)n2)c(OC)cc1N1CCC(N2CCN(C3CN(c4cc(F)c([C@H]5CCC(=O)NC5=O)c(F)c4)C3)CC2)CC1 [Example 8, (R)-3-(4-(3-(4-(1-(4-((5-bromo-4-((5-(dimethylphosphoryl)-3-fluoro-2-methylquinolin-6-yl)amino)pyrimidin-2-yl)amino)-2-ethyl-5-methoxyphenyl)piperidin-4-yl)piperazin-1-yl)azetidin-1-yl)-2,6-difluorophenyl)piperidine-2,6-dione] | 0.6 | 1.6 | 87 | 80
CCc1ccc2c(P(C)(C)=O)c(Nc3nc(Nc4cc(CC)c(N5CCC(N6CCN(C7CN(c8cccc9c8n(C)c(=O)n9C8CCC(=O)NC8=O)C7)CC6)CC5)cc4OC)ncc3Br)ccc2n1 (stereo not drawn) [Example 21, 3-(4-(3-(4-(1-(4-((5-bromo-4-((5-(dimethylphosphoryl)-2-ethylquinolin-6-yl)amino)pyrimidin-2-yl)amino)-2-ethyl-5-methoxyphenyl)piperidin-4-yl)piperazin-1-yl)azetidin-1-yl)-3-methyl-2-oxo-2,3-dihydro-1H-benzol[d]imidazol-1-yl)piperidine-2,6-dione] | 0.6 | 1.8 | 78 | 77
CCc1cc(Nc2ncc(Br)c(Nc3ccc4nc(C)c(F)cc4c3P(C)(C)=O)n2)c(OC)cc1N1CCC2(CCN(CC3CCN(c4cc5c(cc4F)C(=O)N(C4CCC(=O)NC4=O)C5=O)CC3)CC2)CC1 (stereo not drawn) [Example 47, 5-(4-((9-(4-((5-bromo-4-((5-(dimethylphosphoryl)-3-fluoro-2-methylquinolin-6-yl)amino)pyrimidin-2-yl)amino)-2-ethyl-5-methoxyphenyl)-3,9-diazaspiro[5.5]undecan-3-yl)methyl)piperidin-1-yl)-2-(2,6-dioxopiperidin-3-yl)-6-fluoroisoindoline-1,3-dione] | 14.3 | 16 | 88 | 73
